# Data: patent US20040037799A1, “Malodor suppression by fragrance composition” (priority 2002, published 2004)
# Tests used:
# [1] = Air diffusion coefficient of perfume materials; type: physicochemical
# [2] = Malodor coverage by individual fragrance materials (Table 1)
Molecule,Air Diffusion Coefficient [1] [cm²/s],Average Coverage ([2]; scale not defined),Average Coverage ([2]; tested only at 5 and 38 C)
CC(C=O)Cc1ccc(C(C)(C)C)cc1 (stereo not shown) [LILIAL],0.047,2.6,
COc1ccc2ccccc2c1 [NEROLIN YARA YARA 10%],,2.6,
C=CCc1ccc(OC)cc1 [METHYL CHAVICOL],0.0591,2.3,
METHYL NAPTHYL KETONE [METHYL NAPTHYL KETONE 10%],0.0552,2.0,
CC(C)OCCc1ccccc1 [PETIOLE],,2.6,
CCc1ccc(CC(C)(C)C=O)cc1 [FLORAZONE],0.0499,3.6,
CC(C)C1CCC(CO)CC1 (stereo not shown) [MAYOL],0.0545,2.3,
METHYL IONONE GAMMA,0.0453,3.3,
CC(=O)C1(C)CC2=C(CCCC2(C)C)CC1C (stereo not shown) [ISO E SUPER],0.0418,3.3,
CC(C)CC1CC(C)(O)CCO1 (stereo not shown) [FLOROL],0.0521,3.0,
CCCCCCC(C=O)=Cc1ccccc1 [HEXYL CINNAMIC ALDEHYDE],0.0445,2.3,
"C[C@@H]1CC[C@H]2C(C)(C)[C@H]3C[C@@]12CC[C@@]3(C)O [CEDROL LIQUID 10%, CEDROL]",0.0425,3.3,
"C=CCOC(=O)CCCCCC [ALLYL HEPTOATE (C-7), ALLYL HEPTOATE]",0.0523,2.6,
C=CCOC(=O)CCC1CCCCC1 [ALLYL CYCLOHEXYL PROPIONATE],0.0486,2.6,
COC(Cc1ccccc1)OC [PADMA],0.0571,3.3,
CC(=O)OCC=C(C)C [PRENYL ACETATE],0.0649,1.0,
CC(C)=CCCC(C)C=O (stereo not shown) [MELONAL],0.0579,2.0,
CCCCCCCCCCC=CC#N,0.0432,3.0,
c1ccc(CCOC2CCCCC2)cc1,0.0477,2.3,

Molecule,Air Diffusion Coefficient [1] [cm²/s],Average Coverage ([2]; scale not defined),Average Coverage ([2]; tested only at 5 and 38 C)
CC1=CCC2C3CC(C2C1)C1(C3)OC1C (stereo not shown) [RHUBOFIX],,3.0,
CO[C@]1(C)CC[C@@]23C[C@@H]1C(C)(C)[C@@H]2CC[C@H]3C [CEDRAMBER],,2.3,
CCC(C)(O)CCCC(C)C (stereo not shown) [TETRAHYDRO LINAILOOL],0.0533,2.6,
CC(C)CCOCCc1ccccc1 [ANTHER],0.0486,2.6,
C=C1C2CCC(C2)C1(C)C (stereo not shown),0.0613,,3.0
CCCCCCCCCCCC#N [CLONAL],0.0466,3.0,
CC/C(=C\CC1CC=C(C)C1(C)C)CO (stereo not shown) [SANDRANOL],0.0444,3.3,
OCCc1ccccc1 [PHENYL ETHYL ALCOHOL],0.0676,4.3,
O=Cc1ccccc1 [BENZALDEHYDE],0.075,,
OCCC1CCCCC1 [CYCLOHEXYL ETHANOL],0.0629,2.0,
CCCCCC1(C)CCC(C)(C)C1=O (stereo not shown) [VELOUTONE],0.0459,3.0,
CCOC(=O)CC(C)=O [ETHYL ACETOACETATE],0.0554,1.6,
CC(=O)O[C@@H]1C[C@H]2CC[C@]1(C)C2(C)C (racemic) [ISO BORNYL ACETATE],0.0492,2.6,
CC(=O)c1cc2c(cc1C)C(C)(C)C(C)CC2(C)C (stereo not shown) [TONALID 10%],,2.0,
"CCCCCC1CCCC1=O (stereo not shown) [DELPHONE, FIRMENICH]",0.0546,4.0,
CC1CCC(C(C)(C)O)CC1 (stereo not shown) [DIHYDRO TERPINEOL],0.0547,2.0,
CC1CC(C)(c2ccccc2)CO1 (stereo not shown) [RHUBAFURAN],,2.6,
CC(=O)OC/C=C(\C)CCC=C(C)C [GERANYL ACETATE],0.0478,1.0,
